Data set [1] is described as follows: Parallel biophysical and cell viability experiments on h-IAPP variants. Format: cell-based. The method, then: Parallel biophysical and cell viability experiments were conducted using a range of conditions that alter the length of the lag phase. h-IAPP amyloid kinetics are concentration-dependent. Decreasing the peptide concentration leads to an increase in the length of the lag phase, while an increase in human-IAPP concentration leads to a shortening of the lag phase. The length of the lag phase can also be controlled by altering the temperature. Lower temperatures lead to a longer lag phase; the lag phase is 2-fold longer at 15° C. […] A set of rationally designed Ser-20 mutations were used. Ser-20 is located at a critical position in the h-IAPP sequence and modulates its aggregation kinetics. […] Toxicity and kinetics experiments were performed on the Ser-20 mutants. […] An human-IAPP triple mutant, 3×L-IAPP, in which Leu replaced the three aromatic residues (Phe-15, Phe=23 and Tyr-37) was tested. This mutant forms amyloid 9-fold more slowly than wild type human IAPP (Marek at al. 2007). […] The duration of toxicity for all the mutants and for all the conditions with human IAPP wild type correlated with the length of the respective lag phases.

The conditions of data set [2]: Marek at al. 2007; cited from earlier work.

Data on one compound can be found in patent US20160038448A1, “THE INHIBITION OF THE TOXIC EFFECTS OF ISLET AMYLOID FORMATION BY FLURBIPROFEN AND FLURBIPROFEN DERIVATIVES” (The Research Foundation for the State University of New York, priority 2013, published 2016).

Where a SMILES comes first, the peptide text is derived from it. Bridges are numbered along the chain shown (N, C = ends).

In the case of `CC[C@H](C)[C@H](NC(=O)[C@H](C)NC(=O)CNC(=O)[C@H](CC(C)C)NC(=O)[C@H](CC(N)=O)NC(=O)[C@H](CC(N)=O)NC(=O)[C@H](CO)NC(=O)[C@H](CO)NC(=O)[C@H](Cc1c[nH]cn1)NC(=O)[C@@H](NC(=O)[C@H](CC(C)C)NC(=O)[C@H](CC(C)C)NC(=O)[C@H](CC(N)=O)NC(=O)[C@H](C)NC(=O)[C@H](CC(C)C)NC(=O)[C@H](CCCNC(=N)N)NC(=O)[C@H](CCC(N)=O)NC(=O)[C@@H](NC(=O)[C@H](C)NC(=O)[C@@H]1CSSC[C@H](NC(=O)[C@@H](N)CCCCN)C(=O)N[C@@H](CC(N)=O)C(=O)N[C@@H]([C@@H](C)O)C(=O)N[C@@H](C)C(=O)N[C@@H]([C@@H](C)O)C(=O)N1)[C@@H](C)O)C(C)C)C(=O)N[C@@H](CC(C)C)C(=O)N[C@@H](CO)C(=O)N[C@@H](CO)C(=O)N[C@H](C(=O)N[C@@H](CC(N)=O)C(=O)N[C@H](C(=O)NCC(=O)N[C@@H](CO)C(=O)N[C@@H](CC(N)=O)C(=O)N[C@H](C(=O)N[C@@H](CC(C)C)C(N)=O)[C@@H](C)O)C(C)C)[C@@H](C)O` [3×L-IAPP] (H-KCNTATCATQRLANLLVHSSNNLGAILSSTNVGSNTL-NH2; disulfide 2-7), in data set [1], the “onset and duration of toxicity relative to wild type human IAPP” value is listed as “longer duration of toxicity”. In addition, in data set [2], the “amyloid formation slower than wild type human IAPP” value was 9 fold.
